PubChem BioAssay AID248 (DTP/NCI, 2004)
Where “and” joins values, the source holds several entries; their conditions need not be identical. Identical values can stand only once. Inconclusive results and toxic doses are left out. Cut-off read from the data, not from the text of the source: active = T/C of 150% or more; inactive = T/C below 125%.

System: L1210 leukemia ip in BDF1 mice, survival T/C
Experiment: NCI In Vivo Anticancer Drug Screen. Data for tumor model L1210 Leukemia (intraperitoneal) in B6D2F1 (BDF1) mice
Conditions: higher = longer survival
Method in brief: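 Antitumor effect is assessed in tumor-bearing animals. Survival in the compound arm is compared with a vehicle-dosed control arm and expressed as their quotient.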

[1] = endpoint: mean survival time, dose: 50.0 mg/kg/injection, schedule: Q01DX001 (ip), vehicle: saline
[2] = endpoint: mean survival time, dose: 100.0 mg/kg/injection, schedule: Q01DX001 (ip), vehicle: saline
[3] = endpoint: mean survival time, dose: 100.0 mg/kg/injection, schedule: Q01DX009 (ip), vehicle: Klucel (hydroxypropylcellulose) (HPC)
[4] = endpoint: mean survival time, dose: 200.0 mg/kg/injection, schedule: Q01DX009 (ip), vehicle: Klucel (hydroxypropylcellulose) (HPC)
[5] = endpoint: mean survival time, dose: 200.0 mg/kg/injection, schedule: Q01DX001 (ip), vehicle: saline
[6] = endpoint: mean survival time, dose: 400.0 mg/kg/injection, schedule: Q01DX001 (ip), vehicle: saline
[7] = endpoint: mean survival time, dose: 400.0 mg/kg/injection, schedule: Q01DX009 (ip), vehicle: Klucel (hydroxypropylcellulose) (HPC)
[8] = endpoint: mean survival time, dose: 100.0 mg/kg/injection, schedule: Q01DX009 (ip), vehicle: saline
[9] = endpoint: mean survival time, dose: 200.0 mg/kg/injection, schedule: Q01DX009 (ip), vehicle: saline
[10] = endpoint: mean survival time, dose: 400.0 mg/kg/injection, schedule: Q01DX009 (ip), vehicle: saline
[11] = endpoint: mean survival time, dose: 100.0 mg/kg/injection, schedule: Q04DX003 (ip), vehicle: saline with Tween-80
[12] = endpoint: mean survival time, dose: 200.0 mg/kg/injection, schedule: Q04DX003 (ip), vehicle: saline with Tween-80
[13] = endpoint: mean survival time, dose: 400.0 mg/kg/injection, schedule: Q04DX003 (ip), vehicle: saline with Tween-80
[14] = endpoint: mean survival time, dose: 100.0 mg/kg/injection, schedule: Q04DX003 (ip), vehicle: Klucel (hydroxypropylcellulose) (HPC)
[15] = endpoint: mean survival time, dose: 200.0 mg/kg/injection, schedule: Q04DX003 (ip), vehicle: Klucel (hydroxypropylcellulose) (HPC)
[16] = endpoint: mean survival time, dose: 400.0 mg/kg/injection, schedule: Q04DX003 (ip), vehicle: Klucel (hydroxypropylcellulose) (HPC)

Measured: T/C

O=Nc1c(-c2c[nH]c3ccccc23)[nH]c2ccccc12
inactive: [1] 106 % of control | [2] 102 % of control

O=C(NNC(=S)NC1CC2C=CC1C2)c1cccnc1 (stereo not drawn)
inactive: [3] 111 % of control | [4] 101 % of control

Cc1ccc2c(C)nc(N=C(N)N)nc2c1
inactive: endpoint: mean survival time, dose: 18.8 mg/kg/injection, schedule: Q04DX003 (ip), vehicle: saline 96 % of control | endpoint: mean survival time, dose: 37.5 mg/kg/injection, schedule: Q04DX003 (ip), vehicle: saline 100 % of control | endpoint: mean survival time, dose: 75.0 mg/kg/injection, schedule: Q01DX001 (ip), vehicle: saline 103 % of control | endpoint: mean survival time, dose: 75.0 mg/kg/injection, schedule: Q04DX003 (ip), vehicle: saline 97 % of control

O=C(/C=C/c1ccc([N+](=O)[O-])cc1)Nc1cccc(S(=O)(=O)F)c1
inactive: [2] 107 % of control | [5] 112 % of control | [6] 101 % of control

CCCCCCCN(CCCCCCC)CC(O)c1cc2ccc(Cl)cc2nc1-c1ccc(Cl)cc1 (stereo not drawn)
inactive: [3] 87 % of control | [4] 97 % of control | [7] 87 % of control

COC(=O)C(C)C1(O)CCCCC1 (stereo not drawn)
inactive: [8] 96 % of control | [9] 93 % of control | [10] 91 % of control

O=C1c2ccccc2C(=O)N1Cc1c(Cl)cccc1[N+](=O)[O-]
inactive: [3] 107 % of control | [4] 103 % of control | [7] 92 % of control

CC1(C)c2ccccc2C(=O)C1Cc1ccccc1 (stereo not drawn)
inactive: [8] 102 % of control | endpoint: mean survival time, dose: 100.0 mg/kg/injection, schedule: Q04DX003 (ip), vehicle: saline 107 % of control | [9] 101 % of control | endpoint: mean survival time, dose: 200.0 mg/kg/injection, schedule: Q04DX003 (ip), vehicle: saline 104 % of control | [10] 98 % of control | endpoint: mean survival time, dose: 400.0 mg/kg/injection, schedule: Q04DX003 (ip), vehicle: saline 96 % of control

COc1ccccc1CN1CCCN(Cc2ccccc2OC)C1c1cc(I)cc(I)c1O
inactive: endpoint: mean survival time, dose: 100.0 mg/kg/injection, schedule: Q01DX001 (ip), vehicle: carboxymethylcellulose (CMC) 98 % of control | endpoint: mean survival time, dose: 200.0 mg/kg/injection, schedule: Q01DX001 (ip), vehicle: carboxymethylcellulose (CMC) 98 % of control | endpoint: mean survival time, dose: 400.0 mg/kg/injection, schedule: Q01DX001 (ip), vehicle: carboxymethylcellulose (CMC) 93 % of control

Cc1ncc(CO)c(C2NOCc3ccc(Cl)cc32)c1O (stereo not drawn)
inactive: endpoint: mean survival time, dose: 100.0 mg/kg/injection, schedule: Q04DX003 (ip), vehicle: acetone 104 % of control

C=CCNC(=S)NNC(=S)NNc1ccccc1
inactive: endpoint: mean survival time, dose: 100.0 mg/kg/injection, schedule: Q01DX009 (ip), vehicle: acetone 98 % of control | [11] 118 % of control | endpoint: mean survival time, dose: 200.0 mg/kg/injection, schedule: Q01DX009 (ip), vehicle: acetone 90 % of control | [12] 93 % of control | [13] 96 % of control

CC(C)c1ccc(NCN2C(=O)c3ccccc3C2=O)cc1
inactive: [3] 100 % of control | [4] 103 % of control | [7] 101 % of control

CC(C)OC(=O)CC#N
inactive: [2] 103 % of control | [5] 103 % of control | [6] 103 % of control

Cc1cc(C(=O)C=[N+]=[N-])c(CN2C(=O)c3ccccc3C2=O)c(=O)n1C
inactive: endpoint: mean survival time, dose: 100.0 mg/kg/injection, schedule: Q04DX003 (ip), vehicle: other 100 % of control | endpoint: mean survival time, dose: 200.0 mg/kg/injection, schedule: Q04DX003 (ip), vehicle: other 93 % of control | endpoint: mean survival time, dose: 400.0 mg/kg/injection, schedule: Q04DX003 (ip), vehicle: other 94 % of control

CCOC(=O)NC1CCc2ccccc21 (stereo not drawn)
inactive: [2] 98 % of control | [5] 104 % of control | [6] 93 % of control

COC(=O)c1nccnc1N
inactive: endpoint: mean survival time, dose: 50.0 mg/kg/injection, schedule: Q01DX009 (ip), vehicle: Klucel (hydroxypropylcellulose) (HPC) 94 % of control | endpoint: mean survival time, dose: 75.0 mg/kg/injection, schedule: Q01DX001 (ip), vehicle: alcohol 108 % of control | [3] 97 % of control | [14] 94 % of control | endpoint: mean survival time, dose: 150.0 mg/kg/injection, schedule: Q01DX001 (ip), vehicle: alcohol 105 % of control | [4] 108 % of control | [15] 92 % of control | endpoint: mean survival time, dose: 300.0 mg/kg/injection, schedule: Q01DX001 (ip), vehicle: alcohol 100 % of control | [16] 95 % of control

Cc1ccc(NS(=O)(=O)c2ccc3ccccc3c2)c(C)c1
inactive: endpoint: mean survival time, dose: 100.0 mg/kg/injection, schedule: Q01DX009 (ip), vehicle: saline with Tween-80 106 % of control | [11] 89 % of control | endpoint: mean survival time, dose: 200.0 mg/kg/injection, schedule: Q01DX009 (ip), vehicle: saline with Tween-80 112 % of control | [12] 102 % of control | endpoint: mean survival time, dose: 400.0 mg/kg/injection, schedule: Q01DX009 (ip), vehicle: saline with Tween-80 107 % of control | [13] 89 % of control

O=c1oc2cc(O)ccc2c2ccccc12
inactive: [14] 98 % of control | [15] 96 % of control | [16] 102 % of control

COc1ccc(C(=O)N/N=C/c2ccco2)cc1
inactive: [3] 100 % of control | [4] 86 % of control

CC(Cl)CN(C)c1ccc2ccccc2c1 (stereo not drawn)
inactive: endpoint: median survival time, dose: 100.0 mg/kg/injection, schedule: Q01DX009 (ip), vehicle: Klucel (hydroxypropylcellulose) (HPC) 97 % of control | endpoint: median survival time, dose: 200.0 mg/kg/injection, schedule: Q01DX009 (ip), vehicle: Klucel (hydroxypropylcellulose) (HPC) 87 % of control

O=[N+]([O-])c1ccc(Oc2ccc(C3N(c4ccccc4)CCN3c3ccccc3)cc2)c([N+](=O)[O-])c1
inactive: endpoint: mean survival time, dose: 25.0 mg/kg/injection, schedule: Q01DX009 (ip), vehicle: water 91 % of control | endpoint: mean survival time, dose: 50.0 mg/kg/injection, schedule: Q01DX009 (ip), vehicle: water 91 % of control | endpoint: mean survival time, dose: 100.0 mg/kg/injection, schedule: Q01DX009 (ip), vehicle: water 86 % of control | endpoint: mean survival time, dose: 200.0 mg/kg/injection, schedule: Q01DX009 (ip), vehicle: water 91 % of control | endpoint: mean survival time, dose: 400.0 mg/kg/injection, schedule: Q01DX009 (ip), vehicle: water 86 % of control

C[CH2][Hg][S]c1nsc([S][Hg][CH2]C)n1
inactive: endpoint: mean survival time, dose: 1.56 mg/kg/injection, schedule: Q01DX009 (ip), vehicle: Klucel (hydroxypropylcellulose) (HPC) 110 % of control | endpoint: mean survival time, dose: 3.12 mg/kg/injection, schedule: Q01DX009 (ip), vehicle: Klucel (hydroxypropylcellulose) (HPC) 119 % of control | endpoint: mean survival time, dose: 6.25 mg/kg/injection, schedule: Q01DX009 (ip), vehicle: Klucel (hydroxypropylcellulose) (HPC) 121 % of control | endpoint: mean survival time, dose: 12.5 mg/kg/injection, schedule: Q01DX009 (ip), vehicle: Klucel (hydroxypropylcellulose) (HPC) 117 % of control | endpoint: mean survival time, dose: 25.0 mg/kg/injection, schedule: Q01DX009 (ip), vehicle: Klucel (hydroxypropylcellulose) (HPC) 100 % of control

CCCCCCCCC(=O)N1CCC(C)CC1
inactive: endpoint: mean survival time, dose: 200.0 mg/kg/injection, schedule: Q04DX002 (ip), vehicle: Klucel (hydroxypropylcellulose) (HPC) 106 % of control | endpoint: mean survival time, dose: 400.0 mg/kg/injection, schedule: Q04DX002 (ip), vehicle: Klucel (hydroxypropylcellulose) (HPC) 95 % of control

CC1=CC2=C(C=O)C(=O)[C@](C)(O)[C@@H](O)C2=CO1
inactive: endpoint: mean survival time, dose: 50.0 mg/kg/injection, schedule: Q01DX009 (ip), vehicle: saline with Tween-80 109 % of control | [11] 93 % of control | [12] 117 % of control

CC(C)(C)c1ccc(CBr)cc1
inactive: endpoint: mean survival time, dose: 25.0 mg/kg/injection, schedule: Q04DX002 (ip), vehicle: Klucel (hydroxypropylcellulose) (HPC) 102 % of control | endpoint: mean survival time, dose: 50.0 mg/kg/injection, schedule: Q04DX002 (ip), vehicle: Klucel (hydroxypropylcellulose) (HPC) 94 % of control | endpoint: mean survival time, dose: 100.0 mg/kg/injection, schedule: Q04DX002 (ip), vehicle: Klucel (hydroxypropylcellulose) (HPC) 94 % of control

O=P(O)(O)CO
inactive: endpoint: mean survival time, dose: 100.0 mg/kg/injection, schedule: Q04DX002 (ip), vehicle: saline 97 % of control and 87 % of control | endpoint: mean survival time, dose: 200.0 mg/kg/injection, schedule: Q04DX002 (ip), vehicle: saline 86 % of control

O=C(CCCC(=O)NNC(=O)Nc1cccc(S(=O)(=O)F)c1)NNC(=O)Nc1cccc(S(=O)(=O)F)c1
inactive: [1] 106 % of control | [2] 112 % of control | [5] 96 % of control | [6] 112 % of control
